Test [1] has as its system Wistar rats. Description: Novel object recognition. The format is in vivo, rat. Conditions: 1 mg/kg. How it is done:
The novel object recognition model was conducted by Suven Life Sciences Ltd. (Hyderabad, India) using male Wistar rats (n = 12/group). This study was performed in compliance with the requirements and in-house animal care and usage policy of the Institutional Animal Ethics Committee (IAEC). The experiment was conducted over a 5-day period. For the first 3 days, ACD855 or vehicle were administered to the animals. On Day 4, the rats were acclimatized to their respective arenas for 20 min and then returned to their home cages for the administration of ACD855 or vehicle (1 h post habituation phase). On Day 5, the rats were administered vehicle or ACD855 1 h prior to trial, donepezil (1 mg/kg) was injected 30 min prior to trial, and scopolamine (1 mg/kg) was injected 20 min prior to trial. 20 min after scopolamine administration, the rats were subjected to the familiarization phase. The experiment was performed as described by Lueptow. The discriminative index for the drug-treated groups was compared to that of the vehicle group by use of the Kruskal–Wallis test. The discriminative index is the ratio of time spent exploring the novel object divided by the sum of the time spent exploring the novel object and a familiar object in the choice trial.

The target in test [2] is T1, TrkA (Homo sapiens, UniProt P04629).
T1 construct: host or cells: U2OS (human osteosarcoma), co-expressing p75 and SHC-1 fused to the enzyme acceptor
T1 sequence (P04629 33-796): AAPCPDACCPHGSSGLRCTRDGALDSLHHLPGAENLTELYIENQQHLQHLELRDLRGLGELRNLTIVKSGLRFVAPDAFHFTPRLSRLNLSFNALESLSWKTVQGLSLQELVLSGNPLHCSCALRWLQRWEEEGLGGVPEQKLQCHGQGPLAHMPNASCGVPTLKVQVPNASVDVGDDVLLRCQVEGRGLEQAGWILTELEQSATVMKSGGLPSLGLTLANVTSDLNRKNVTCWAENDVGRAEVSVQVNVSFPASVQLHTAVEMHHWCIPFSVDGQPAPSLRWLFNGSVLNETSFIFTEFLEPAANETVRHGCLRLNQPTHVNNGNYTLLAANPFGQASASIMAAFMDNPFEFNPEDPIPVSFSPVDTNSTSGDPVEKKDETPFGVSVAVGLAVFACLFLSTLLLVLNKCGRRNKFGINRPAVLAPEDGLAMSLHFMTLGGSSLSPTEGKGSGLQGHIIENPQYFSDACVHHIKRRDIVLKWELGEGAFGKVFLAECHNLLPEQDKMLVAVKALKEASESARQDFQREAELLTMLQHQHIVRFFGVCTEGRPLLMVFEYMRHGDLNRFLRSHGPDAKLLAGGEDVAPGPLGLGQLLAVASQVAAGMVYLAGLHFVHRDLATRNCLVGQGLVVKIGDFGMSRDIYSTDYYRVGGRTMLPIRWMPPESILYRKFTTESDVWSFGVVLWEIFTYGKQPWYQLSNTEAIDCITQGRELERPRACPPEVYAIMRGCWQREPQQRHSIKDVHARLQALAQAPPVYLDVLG
In words: TrkA PathHunter cell-based assay (U2OS-TrkA/p75). How it is done:
(§1) U2OS cells were maintained subconfluent in EMEM supplemented with 10% FBS and penicillin/streptomycin/hygromycin and G418. One day prior to the experiment, 5000 cells of EMEM supplemented with 0.5% horse serum were seeded in each well of a 384-well white plate. The assay was performed as previously described. Briefly, the TrkA or TrkB cell-based PathHunter® assays use enzyme fragment complementation (EFC) technology for the complementation of two β-galactosidase (β-gal) fragments in order to study protein–protein interactions. Upon activation with ligand, TrkA or TrkB are phosphorylated on several tyrosine residues, including tyrosine 490, leading to an interaction with SHC-1. In the PathHunter® assays, the Trk-receptors are fused to an enzyme donor tag, and SHC-1 is fused to a larger part of β-gal called an enzyme acceptor. The interactions between the recombinant enzyme donor, i.e., the Trk-receptor, with an enzyme acceptor, i.e., SHC-1, leads to an active β-gal enzyme. The functional (complemented) β-gal will hydrolyze a substrate to generate a luminescence signal. The generated luminescence was read using an EnVision plate reader from PerkinElmer, Upplands Väsby, Sweden, or an ID5 plate reader from Molecular Devices, Berkshire, RG41 5TS UK. […] Min- and Max-control wells were included on each plate.
Both Toltrazuril and Ponazuril are registered veterinary products prescribed for parasitic infections in animals. […] The activation of Trk-receptors leads to an intracellular interaction between the Trk-receptor and SHC-1 and thereby to the complementation of β-gal, which will render in a functional enzyme. β-gal will hydrolyze a substrate to generate luminescence, which is proportional to the number of activated receptors.

In test [3] the target is T2, TrkB (Homo sapiens, UniProt Q16620).
T2 construct: host or cells: U2OS (human osteosarcoma), co-expressing p75 and SHC-1 fused to the enzyme acceptor
T2 sequence (Q16620 32-822): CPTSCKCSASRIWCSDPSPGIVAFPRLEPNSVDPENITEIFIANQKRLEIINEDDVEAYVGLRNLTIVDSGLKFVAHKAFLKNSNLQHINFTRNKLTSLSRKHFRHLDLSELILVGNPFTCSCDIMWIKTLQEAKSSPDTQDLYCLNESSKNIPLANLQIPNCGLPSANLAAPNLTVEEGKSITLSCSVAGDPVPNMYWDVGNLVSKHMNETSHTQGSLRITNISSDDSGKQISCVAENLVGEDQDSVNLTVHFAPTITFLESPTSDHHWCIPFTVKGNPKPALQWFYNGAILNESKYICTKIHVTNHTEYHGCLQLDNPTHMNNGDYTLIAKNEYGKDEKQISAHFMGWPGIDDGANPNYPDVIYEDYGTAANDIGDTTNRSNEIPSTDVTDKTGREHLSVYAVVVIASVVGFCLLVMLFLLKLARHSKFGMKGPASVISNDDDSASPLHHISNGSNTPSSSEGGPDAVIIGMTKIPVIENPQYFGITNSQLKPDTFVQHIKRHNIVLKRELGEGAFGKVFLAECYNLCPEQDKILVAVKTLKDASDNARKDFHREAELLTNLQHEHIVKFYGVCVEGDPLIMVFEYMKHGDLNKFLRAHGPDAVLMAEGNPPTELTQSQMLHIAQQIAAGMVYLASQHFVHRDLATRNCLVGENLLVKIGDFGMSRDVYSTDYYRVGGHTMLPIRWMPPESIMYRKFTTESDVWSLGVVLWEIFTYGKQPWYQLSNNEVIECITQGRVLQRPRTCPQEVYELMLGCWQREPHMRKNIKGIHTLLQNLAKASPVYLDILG
Description: TrkB PathHunter cell-based assay (U2OS-TrkB/p75). On the procedure:
as §1, with “each plate. A compound was considered a hit if the percent activation was more than 50% and if the value was two standard deviations higher than the mean value of all of the samples on the plate. The average activation of all of samples on 10 different 384-well plates was 31%. […] Due to the risk of adverse events with the systemic administration of TrkA agonists, the screen and the re-screen processes were designed to increase the likelihood of identifying the positive modulators of NGF-signaling rather than identifying TrkA agonists. Based on the results of the re-screen, in combination with the physical–chemical properties of the molecules, a collection of hits was used for the EC50 determinations.” for “each plate.”
Both Toltrazuril and Ponazuril are registered veterinary products prescribed for parasitic infections in animals. […] The cellular response to NGF or BDNF was measured using PathHunter® assays employing β-gal enzyme fragment complementation technology. The activation of Trk-receptors leads to an intracellular interaction between the Trk-receptor and SHC-1 and thereby to the complementation of β-gal, which will render in a functional enzyme. β-gal will hydrolyze a substrate to generate luminescence, which is proportional to the number of activated receptors. […]

In test [4] the test system is C57BL/6J mice. Description: Passive avoidance task. Format: in vivo, mouse. Conditions: low doses given by themselves; physostigmine 0.025 mg/kg. How it is done:
The passive avoidance (PA) task is an associate learning paradigm that is based on Pavlovian fear-conditioning and instrumental conditioning and conducted as previously described in male C57BL/6J mice (n = 7–8/group) from Charles River Laboratories, Sulzfeld, Germany. Vehicle or ACD855 (1, 3 or 10 mg/kg), formulated in 20% DMSO in 0.1 M sodium phosphate buffer pH 8.0, was administered daily (Days 1–4) through s.c. injections (4 mL/kg body weight). ACD856 (0.1, 0.3, 1 or 3 mg/kg) was administered by a single s.c. dose on the training day (Day 4). ACD855, ACD856, ANA-12 (0.5 mg/kg, from Sigma Aldrich, Stockholm, Sweden), physostigmine (0.025 mg/kg, from Sigma Aldrich, Stockholm, Sweden), or vehicle was administered 60 min prior to training, except for when addressing the effects on consolidation, in which case, ACD856 was dosed 5 min after the training session on day 4. Moreover, on the training day (Day 4), scopolamine or the NMDA-antagonist MK-801 (both from Sigma Aldrich, Stockholm, Sweden) at 0.3 mg/kg or vehicle was administered once s.c. 30 min prior to training. No compound was administered on the test day (Day 5), except for when addressing effects on retrieval, in which case, ACD856 was dosed 30 min prior to testing on day 5. Retention latencies and time spent in the bright compartment were determined 24 h after training (Day 5).

The test system of test [5] is Shaffer collaterals-CA1 pathway, hippocampal slices. In words: Facilitation of long-term potentiation in rat hippocampal slices. Conditions: 50 ng/mL; n = 9 slices from 7 rats. On the procedure: Male Sprague Dawley rats (4–5 weeks old) from Charles River Laboratories, Sulzfeld, Germany, were used in these experiments. Rats were deeply anesthetized using isoflurane and decapitated soon after the disappearance of the corneal reflexes. The brains were removed and placed in ice-cold standard artificial CSF (aCSF) solution (124 mM NaCl, 30 mM NaHCO3, 10 mM glucose, 1.25 mM NaH2PO4, 3.5 mM KCl, 1 mM MgCl2, 2 mM CaCl2). Hippocampal horizontal sections (400 µm thick) were prepared using a Leica VT1200S vibratome (Leica Microsystems, Kista, Sweden). Immediately after slicing, sections were transferred into an interface incubation chamber filled with standard aCSF. The chamber was held at 34 °C during the slicing period and was subsequently allowed to cool down to room temperature. […] The facilitation of long-term potentiation (LTP) was monitored in the Shaffer collaterals (SC)-CA1 pathway in the hippocampus. […] Data were normalized with respect to the mean fEPSP slope recorded during the last 10 min of the baseline period.
It has been well-described that the transient, short-term plasticity of synaptic strength induced by a weak stimulation in hippocampal slices can turn into long-term potentiation (LTP) through the exogenous application of BDNF [71, 72, 73]. […] In the control slices, the recorded potentiation decreased to the baseline level after 60 min. […]

In the case of `COc1cc2c(cc1OC)C(=O)C(CC1CCN(Cc3ccccc3)CC1)C2` (centres unmarked) [Donepezil], in test [1], the “time with novel object vs familiar object after scopolamine” value is listed as “spent significantly more time with the novel object”.
Turning to `N#CC(c1ccc(Cl)cc1)c1c(Cl)cc(-n2ncc(=O)[nH]c2=O)cc1Cl` (centres unmarked) [Diclazuril], the “activity in the TrkA assay” value in test [2] is listed as “not active”. For the same molecule, the “activity in the TrkB assay” value in test [3] was “not active”.
On to `CNC(=O)Oc1ccc2c(c1)[C@]1(C)CCN(C)[C@@H]1N2C` [physostigmine], for which, in test [4], the “effect of low dose alone on scopolamine-induced memory impairment” value is “no significant effect”.

B1: BDNF: recombinant human brain-derived neurotrophic factor (protein, UniProt P23560 19-247, looked up)
Neurotrophic factor BDNF …: APMKEANIRGQGGLAYPGVRTHGTLESVNGPKAGSRGLTSLADTFEHVIEELLDEDQKVRPNEENNKDADLYTSRVMLSSQVPLEPPLLFLLEEYKNYLDAANMSMRVRRHSDPARRGELSVCDSISEWVTAADKKTAVDMSGGTVTVLEKVPVSKGQLKQYFYETKCNPMGYTKEGCRGIDKRHWNSQCRTTQSYVRALTMDSKKRIGWRFIRIDTSCVCTLTIKRGR
Take B1: the “long-lasting potentiation of evoked synaptic responses (fEPSP slope), fold increase” value in test [5] is on record as 1.22 ± 0.04 fold.

Values taken from PMC8391421, “Identification of Novel Positive Allosteric Modulators of Neurotrophin Receptors for the Treatment of Cognitive Dysfunction” (Cells, 2021).
